Experimental data published in ChEMBL document CHEMBL4483862, “Open-source discovery of chemical leads for next-generation chemoprotective antimalarials” (2018).

Tested on: Plasmodium berghei
Assay: Luciferase/luciferin-expressing antifolate-resistant parasites were used to infect a culture of HepG2 cells that were pre-incubated with compounds. Infected hepatocytes emit light due to the luciferase reaction. Assay results are presented as the percent inhibition of light emission compared to control. […]
Type: functional
Details: sporozoite; for IC90: read-out: LUCIFERASE INFECTION ASSAY - IC90
[1] = read-out: LUCIFERASE INFECTION ASSAY - IC50

Structure (SMILES)	IC90 [µM]	IC50 [1] [µM]	further results
Cc1ccc(-c2nn(-c3ccccc3)cc2CN(C)C(=O)CCNC(=O)c2ccco2)cc1C	> 10	–	IC50 (PBLUC_HILL_SLOPE 3, PBLUC_R_SQUARED 0.508, read-out: LUCIFERASE INFECTION ASSAY - IC50): 5.91 µM
COCCCn1c(-c2ccc(C(C)(C)C)cc2)n[nH]c1=S	> 10.8	–	IC50 (PBLUC_HILL_SLOPE 2.97, PBLUC_R_SQUARED 0.207, read-out: LUCIFERASE INFECTION ASSAY - IC50): 6.76 µM
Cc1ccc2c(c1)nc1n2CN(CCN2CCOCC2)CN1Cc1ccccc1	1.1	–	IC50 (HEPG2TOX_HILL_SLOPE 1.27, HEPG2TOX_R_SQUARED 0.847, PBLUC_HILL_SLOPE 11.9, PBLUC_R_SQUARED 0.472, read-out: LUCIFERASE INFECTION ASSAY - IC50): 0.911 µM
COC(=O)c1occc1/C=C/C(=O)c1ccc2c(c1)CCC2	> 10	> 10	–
CCOC(=O)C1=C(C)NC2=C(C(=O)C(c3c(F)cccc3Cl)CC2)C1c1ccc(Cl)cc1Cl (stereo not given)	> 6.49	–	IC50 (FFLUC_HILL_SLOPE 7.96, FFLUC_R_SQUARED 0.479, HEPG2TOX_HILL_SLOPE 1.9, HEPG2TOX_R_SQUARED 0.947, PBLUC_HILL_SLOPE 15.9, PBLUC_R_SQUARED 0.177, read-out: LUCIFERASE INFECTION ASSAY - IC50): 6.08 µM
Cc1csc(C(C#N)C(=O)CSc2nc(-c3ccc(Br)cc3)nc3ccccc23)n1 (stereo not given)	> 10	–	IC50 (FFLUC_HILL_SLOPE 1.1, FFLUC_R_SQUARED 0.67, read-out: LUCIFERASE INFECTION ASSAY - IC50): > 10 µM
COc1cccc(-n2c(C)cc(C(=O)CSc3ncc(C#N)c(N)n3)c2C)c1	> 8.39	> 8.39	–
Cc1cccc(OC2=C(Cl)C(=O)c3ccccc3C2=O)c1	> 11	–	IC50 (HEPG2TOX_HILL_SLOPE 2.98, HEPG2TOX_R_SQUARED 0.916, PBLUC_HILL_SLOPE 1.18, PBLUC_R_SQUARED 0.608, read-out: LUCIFERASE INFECTION ASSAY - IC50): 5.41 µM
Cc1ccc(CNc2ncnc3sccc23)cc1	> 10	–	IC50 (HEPG2TOX_HILL_SLOPE 1.53, HEPG2TOX_R_SQUARED 0.949, PBLUC_HILL_SLOPE 1.13, PBLUC_R_SQUARED 0.759, read-out: LUCIFERASE INFECTION ASSAY - IC50): 3.63 µM
O=C(Cc1c(F)cccc1Cl)Nc1ccccc1-c1nc2ccccc2[nH]1	7.35	1.73	–
CSc1sc(C#N)c(C)c1-c1ccon1	> 14	–	IC50 (PBLUC_HILL_SLOPE 9.35, PBLUC_R_SQUARED 0.116, read-out: LUCIFERASE INFECTION ASSAY - IC50): > 14 µM
Cc1cc(C)c(CSC2=NCCCN2C2CCCCC2)c(C)c1	> 8.99	> 8.99	–
CC(Nc1ncnc2ccsc12)c1cccc2ccccc12 (stereo not given)	> 10	2.13	–
Cc1nn(C)c2nc(-c3cccs3)cc(C(=O)Nc3ccccc3C(=O)NCC3CCCO3)c12 (stereo not given)	> 10	–	IC50 (PBLUC_HILL_SLOPE 3.11, PBLUC_R_SQUARED 0.411, read-out: LUCIFERASE INFECTION ASSAY - IC50): 5.11 µM
O=C(CSc1nnc(-c2ccco2)o1)OCc1cc(F)cc2c1OC(c1ccccc1)OC2 (stereo not given)	4.11	–	IC50 (HEPG2TOX_HILL_SLOPE 2.76, 2.27, HEPG2TOX_R_SQUARED 0.916, 0.957, PBLUC_HILL_SLOPE 6.02, 15.8, PBLUC_R_SQUARED 0.479, 0.425, read-out: LUCIFERASE INFECTION ASSAY - IC50): 3.17 µM
CCCOc1ccc2cc(C(=O)c3c(C)[nH]c(C)c3C(=O)OCC)oc2c1	> 10	–	IC50 (HEPG2TOX_HILL_SLOPE 4.85, HEPG2TOX_R_SQUARED 0.69, PBLUC_HILL_SLOPE 11.9, PBLUC_R_SQUARED 0.276, read-out: LUCIFERASE INFECTION ASSAY - IC50): 9.4 µM
COC(=O)c1ccc(COc2ccc(/C=N/Nc3ccnc4cc(Cl)ccc34)cc2OC)cc1	> 10	> 10	–
COc1ccccc1Oc1ccc(S(=O)(=O)N(c2cccnc2)S(=O)(=O)c2ccc(Oc3ccccc3OC)cc2)cc1	> 10	> 10	–
Cn1ccnc1SCc1n[nH]c(=O)c2ccccc12	8.93	–	IC50 (HEPG2TOX_HILL_SLOPE 15.9, HEPG2TOX_R_SQUARED 0.771, PBLUC_HILL_SLOPE 3.2, PBLUC_R_SQUARED 0.661, read-out: LUCIFERASE INFECTION ASSAY - IC50): 4.5 µM
O=C(CCn1cnc2ccccc2c1=O)Nc1ccc(Br)cn1	4.76	–	IC50 (HEPG2TOX_HILL_SLOPE 3.2, HEPG2TOX_R_SQUARED 0.878, PBLUC_HILL_SLOPE 4.82, PBLUC_R_SQUARED 0.722, read-out: LUCIFERASE INFECTION ASSAY - IC50): 3.02 µM
COc1ccc(N/N=C2\C=CC(=O)c3ncccc32)cc1	> 10	–	IC50 (HEPG2TOX_HILL_SLOPE 8.38, HEPG2TOX_R_SQUARED 0.289, PBLUC_HILL_SLOPE 16, PBLUC_R_SQUARED 0.427, read-out: LUCIFERASE INFECTION ASSAY - IC50): 9.1 µM
Cn1nnnc1Sc1ncnc2cc(-c3ccc(F)cc3)sc12	> 10	> 10	–
Cc1cc(C(=O)CSC2=NCCS2)c(C)n1-c1ccc(F)cc1	> 10	–	IC50 (PBLUC_HILL_SLOPE 0.709, PBLUC_R_SQUARED 0.459, read-out: LUCIFERASE INFECTION ASSAY - IC50): 2.87 µM

Structure (SMILES)	IC90 [µM]	IC50 [1] [µM]	further results
CCn1c(C)nc2cc(C(=O)NNC(=O)c3cc4c(C)nn(-c5cccc(C(F)(F)F)c5)c4s3)ccc21	> 10	> 10	–
Cc1ccc(S(=O)(=O)Nc2ccccc2-c2nnc(-c3ccc(C(C)(C)C)cc3)o2)cc1	> 7.37	–	IC50 (HEPG2TOX_HILL_SLOPE 0.544, HEPG2TOX_R_SQUARED 0.0439, read-out: LUCIFERASE INFECTION ASSAY - IC50): > 7.37 µM
CCCNS(=O)(=O)c1cccc(C(=O)N2CCN(c3cccc(OC)c3)CC2)c1	> 10	–	IC50 (HEPG2TOX_HILL_SLOPE 3.58, HEPG2TOX_R_SQUARED 0.848, read-out: LUCIFERASE INFECTION ASSAY - IC50): > 10 µM
N#C/C(=N/Nc1ccc(OC(F)(F)F)cc1)C(N)=S	4.35	–	IC50 (HEPG2TOX_HILL_SLOPE 2.59, HEPG2TOX_R_SQUARED 0.943, PBLUC_HILL_SLOPE 11.1, PBLUC_R_SQUARED 0.624, read-out: LUCIFERASE INFECTION ASSAY - IC50): 3.57 µM
CCCNC(=O)c1c(NC(=O)c2cccc(C)c2)nc2ccccn12	> 9.81	–	IC50 (PBLUC_HILL_SLOPE 17.7, PBLUC_R_SQUARED 0.381, read-out: LUCIFERASE INFECTION ASSAY - IC50): 9.1 µM
O=C(CCc1nc2ccccc2s1)OCCOc1ccccc1F	> 10	> 10	–
COCCn1c(C)cc(C(=O)CSc2nnc(C)s2)c1C	> 10.1	–	IC50 (FFLUC_HILL_SLOPE 1.54, FFLUC_R_SQUARED 0.663, PBLUC_HILL_SLOPE 0.577, PBLUC_R_SQUARED 0.574, read-out: LUCIFERASE INFECTION ASSAY - IC50): 0.418 µM
COc1cc(/C=N/NC(=O)c2cc(C)n(-c3ccccc3)c2C)ccc1OCC(=O)Nc1c(C)cc(C)cc1C	8.35	–	IC50 (HEPG2TOX_HILL_SLOPE 0.635, HEPG2TOX_R_SQUARED 0.731, PBLUC_HILL_SLOPE 5.43, PBLUC_R_SQUARED 0.0161, read-out: LUCIFERASE INFECTION ASSAY - IC50): 5.57 µM
CCC(C)c1ccccc1OS(=O)(=O)c1ccc2c(c1)NC(=O)CO2 (stereo not given)	> 10	> 10	–
Cc1nn(-c2ccccc2)c(C)c1-c1nc(-c2ccccc2)no1	5.81	–	IC50 (FFLUC_HILL_SLOPE 123, FFLUC_R_SQUARED 0.665, PBLUC_HILL_SLOPE 0.902, PBLUC_R_SQUARED 0.808, read-out: LUCIFERASE INFECTION ASSAY - IC50): 0.508 µM
CN(C)c1cccc(-c2cnc3cnc(-c4cnn(Cc5ccccc5)c4)cn23)c1	> 8.37	> 8.37	–
Cc1nc(SCC(=O)c2cc(C)n(-c3ccccc3)c2C)c2ccsc2n1	> 10	> 10	–
COc1ccc2c(c1)C(=O)C(=O)N2Cc1ccccc1Cl	> 10.9	–	IC50 (FFLUC_HILL_SLOPE 0.896, FFLUC_R_SQUARED 0.182, read-out: LUCIFERASE INFECTION ASSAY - IC50): > 10.9 µM
Cc1c(C(=O)Nc2cccc(S(=O)(=O)N(C)C)c2)cnn1-c1ccc(=O)[nH]n1	> 10	> 10	–
N#C/C(=C\C=C\c1ccccc1)c1cccc(Cl)c1	> 12.4	> 12.4	–
CC(C)c1ccc(NC(=O)c2csc(Cc3c(Cl)cccc3Cl)n2)cc1	8.08	–	IC50 (HEPG2TOX_HILL_SLOPE 1.62, HEPG2TOX_R_SQUARED 0.849, PBLUC_HILL_SLOPE 1.9, PBLUC_R_SQUARED 0.639, read-out: LUCIFERASE INFECTION ASSAY - IC50): 2.55 µM
CCCCCNS(=O)(=O)c1cccc2c(N)cccc12	> 11.3	3.76	–
N#Cc1cccc(Nc2nc(C(F)(F)F)nc3ccccc23)c1	> 10	–	IC50 (PBLUC_HILL_SLOPE 4.2, PBLUC_R_SQUARED 0.258, read-out: LUCIFERASE INFECTION ASSAY - IC50): 8.32 µM
O=C(Nc1ccc(OC(F)(F)F)cc1)c1cc([N+](=O)[O-])c[nH]c1=O	> 10	–	IC50 (PBLUC_HILL_SLOPE 2.36, PBLUC_R_SQUARED 0.402, read-out: LUCIFERASE INFECTION ASSAY - IC50): 5.59 µM
CN(Cc1c(F)cccc1Cl)C(=O)COc1ccc2[nH]c3ccccc3c(=O)c2c1	1.11	–	IC50 (PBLUC_HILL_SLOPE 2.98, PBLUC_R_SQUARED 0.795, read-out: LUCIFERASE INFECTION ASSAY - IC50): 0.53 µM
Cc1cc(C(C)(C)C)cc(C)c1COC(=O)/C(=C/c1ccccc1)n1nnnc1C	> 10	> 10	–
O=C1C=C/C(=N\Nc2ccc(F)cc2)c2cccnc21	> 10	–	IC50 (HEPG2TOX_HILL_SLOPE 7.02, HEPG2TOX_R_SQUARED 0.243, read-out: LUCIFERASE INFECTION ASSAY - IC50): > 10 µM
